Measured values taken from patent US20050244490A1, “Dosing methods for beta-D-2',3'-dideoxy-2',3'-didehydro-5-fluorocytidine antiviral therapy” (priority 2003, published 2005).
“And” between values parts separate entries of the source, which are not always exact repeats. Identical values can stand only once. Like-named read-outs stand apart in the source and are kept apart here.

Tests used:
[1] = system: AZT/3TC-resistant HIV-1 recombinant viruses; assay: microbe, parasite or virus in culture; assay type: cell-based
Protocol: A panel of 22 viruses was constructed in the HXB2 background using the Protease and RT sequences from clinical isolates to determine Virco Profiling against recombinant clinical isolates (see FIGS. 7a and 7b). Viruses contained 2 to 17 mutations in RT frequently associated with nucleoside resistance, including: M184V, M41L, D67N, T215Y. IC50 values were determined using a high through-put reporter virus assay.

in vivo [2] = settings: rat
M184V mutant RT = M184V mutant RT (Human immunodeficiency virus type 1 group M subtype B, UniProt P04585, M771V); assay: biochemical; assay type: biochemical, HIV-1; settings: read-out: Ki for mutant RT
wild type HIV-RT = molecular target: T1, wild type HIV-RT (Human immunodeficiency virus type 1 group M subtype B, UniProt P04585); assay: Ki / Km for wild type HIV-RT; assay type: biochemical, HIV-1
T1 construct: The Ki value for β-D-D4FC-TP for wild type HIV-RT

clinical = settings: in vivo
[3] = pbmc
[4] = system: mouse primary bone marrow cells; assay: Mitochondrial toxicity in primary bone marrow cells; assay type: cell-based; settings: concentrations <1 mM
[5] = Food effect, fed versus fasted crossover (Cohort 4); settings: for AUC / AUC(0-inf) / CL/F / Cmax / half-life / Tmax: human, plasma, oral, 100 mg, PART B; for AUC: AUC(0-τ); for CL/F: CLtot/F; for half-life: t1/2 λz
HepG2 cells = assay: Mitochondrial toxicity testing (mitDNA, rRNA, lactic acid); assay type: cell-based; settings: 14 days; for % Change in Lactic Acid: normalized for cytotoxicity
Protocol: HepG2 cells were incubated for 14 days with the active agent. and mitDNA and rRNA levels were determined by quantitative real-time PCR. The results are tabulated in […]

plasma HIV-1 RNA = assay type: in vivo; settings: for reduction of viral load: 48 hours
Protocol: The study consisted of a double-blind, randomized, placebo-controlled, three-period crossover, dose escalation design in HIV-infected male subjects. Five dose levels (10, 25, 50, 100, and 200 mg) were administered in three cohort studies. Seven days elapsed between the end of one cohort and the start of the next dosing period.

wild type HIV-1 = assay: Inhibition of wild type virus replication in MT-2 cells or PBMCs; assay type: cell-based; settings: Human immunodeficiency virus 1, MT2; wild type laboratory and clinical isolates of HIV-1
From the text: The target concentration is that concentration where most mutant variants tested are suppressed by 90% or more.

HIV viral load = assay: Viral load decline on repeated dosing, β-D-D4FC and competing nucleosides; assay type: in vivo; settings: 50 mg QD, duration of dosing 10
in vivo [6] = settings: dog, 15 mg/kg
[7] = Pharmacokinetics in the rhesus monkey; assay type: in vivo
[8] = Cytotoxicity, MTT reduction; assay type: cell-based; settings: read-out: TC50
Protocol: Cytotoxicity was measured by reduction of the formazan dye MTT, which is catalyzed by mitochondrial succinate dehydrogenase.

[9] = human, in vivo
[10] = 100 MG FED, coated tablet after high fat meal

Nc1nc(=O)n(C2C=CC(CO)O2)cc1F [β-D-D4FC, β-D-2′,3′-Didehydro-2′,3′-dideoxy-5-fluorocytidine]
target value of parent compound for >90% suppression ([1]; AZT, 3TC and co-resistant variants): 5 µM
IC90 ([1]; Human immunodeficiency virus 1, read-out: Average IC90 for AZT/3TC-R virus): 5.5 µM
activity against multi-drug resistant strains ([1]; Q151M or D69S insertions plus at least 5 additional mutations): only weakly active
suppression of most mutant variants tested ([1]; at 5 μM in vitro): ≥ 90%
clinically significant HIV mutant strains inhibited ([1]; including AZT and 3TC resistant variants): more than 80%
reduction in activity ([1]; recombinant viruses with as many as 10 mutations incl. M41L, M184V, D67N, L74V, K70R, T215Y or K219Q): less than 5 fold
AUC at 28 d (in vivo [2]; 15 mg/kg): 70 µM·h
Cmax at 28 d (in vivo [2]; 15 mg/kg): 17 µM
AUC at 28 d (in vivo [2]; 45 mg/kg): 161 µM·h
Cmax at 28 d (in vivo [2]; 45 mg/kg): 44 µM
Ki (M184V mutant RT): 0.3 to 0.5 µM
Ki (wild type HIV-RT): 0.1 µM
half-life (clinical): 6 to 15 h
Intracellular half life [3]: 13 to 17 h
mitochondrial toxicity [4]: not associated with mitochondrial toxicity
Cmax and AUC values in the fed regimen as fraction of the fasted regimen ([5]; 100 mg coated tablets, high fat meal): less than 1/10
AUC ([5]; 100 MG FASTED, coated tablet): 6110 ng·h/mL
AUC [5, 10]: 542 ng·h/mL
AUC(0-inf) ([5]; 100 MG FASTED, coated tablet): 6170 ng·h/mL
AUC(0-inf) [5, 10]: 643 ng·h/mL
CL/F ([5]; 100 MG FASTED, coated tablet): 478 mL/min
CL/F [5, 10]: 3380 mL/min
Cmax ([5]; 100 MG FASTED, coated tablet): 1160 ng/mL
Cmax [5, 10]: 90 ng/mL
half-life ([5]; 100 MG FASTED, coated tablet): 8.61 h
half-life [5, 10]: 4.38 h
Tmax ([5]; 100 MG FASTED, coated tablet): 1.83 h
Tmax [5, 10]: 2.5 h
% Change in mitDNA (HepG2 cells; 1 μM): 0%
% Change in rRNA (HepG2 cells; 1 μM): 0%
% Change in Lactic Acid (HepG2 cells; 1 μM): +12%
% Change in mitDNA (HepG2 cells; 10 μM): −1.6%
% Change in rRNA (HepG2 cells; 10 μM): 0%
% Change in Lactic Acid (HepG2 cells; 10 μM): −2%
drop in viral load, subject with mutant virus L41+N103+C181+W210+D215 (plasma HIV-1 RNA; 10 mg): 0.61 log10
reduction of viral load (plasma HIV-1 RNA; 10 mg dose): 0.42±0.2 log10 and 0.42 log10
Change in Plasma HIV-1 RNA (plasma HIV-1 RNA; 10 mg, 12 h): 0.05 ± 0.09 log10
Change in Plasma HIV-1 RNA (plasma HIV-1 RNA; 10 mg, 24 h): −0.12 ± 0.14 log10
Change in Plasma HIV-1 RNA (plasma HIV-1 RNA; 10 mg, 48 h): −0.42 ± 0.20 log10
drop in viral load, subject with mutant virus L41+N103+C181+W210+D215 (plasma HIV-1 RNA; 25 mg): 0.43 log10
Change in Plasma HIV-1 RNA (plasma HIV-1 RNA; 25 mg, 12 h): 0.03 ± 0.09 log10
Change in Plasma HIV-1 RNA (plasma HIV-1 RNA; 25 mg, 24 h): −0.13 ± 0.10 log10
Change in Plasma HIV-1 RNA (plasma HIV-1 RNA; 25 mg, 48 h): −0.34 ± 0.26 log10
Change in Plasma HIV-1 RNA (plasma HIV-1 RNA; 100 mg, 12 h): −0.03 ± 0.08 log10
Change in Plasma HIV-1 RNA (plasma HIV-1 RNA; 100 mg, 24 h): −0.15 ± 0.14 log10
Change in Plasma HIV-1 RNA (plasma HIV-1 RNA; 100 mg, 48 h): −0.44 ± 0.17 log10
reduction of viral load (plasma HIV-1 RNA; 100 mg): 0.44±0.17
Change in Plasma HIV-1 RNA (plasma HIV-1 RNA; 200 mg, 12 h): −0.02 ± 0.24 log10
Change in Plasma HIV-1 RNA (plasma HIV-1 RNA; 200 mg, 24 h): −0.06 ± 0.22 log10
Change in Plasma HIV-1 RNA (plasma HIV-1 RNA; 200 mg, 48 h): −0.27 ± 0.28 log10
Change in Plasma HIV-1 RNA (plasma HIV-1 RNA; 50s mg (solution), 12 h): 0.00 ± 0.00 log10
Change in Plasma HIV-1 RNA (plasma HIV-1 RNA; 50s mg (solution), 24 h): −0.11 ± 0.07 log10
Change in Plasma HIV-1 RNA (plasma HIV-1 RNA; 50s mg (solution), 48 h): −0.44 ± 0.02 log10
Change in Plasma HIV-1 RNA (plasma HIV-1 RNA; 50t mg (tablet), 12 h): 0.05 ± 0.07 log10
Change in Plasma HIV-1 RNA (plasma HIV-1 RNA; 50t mg (tablet), 24 h): −0.08 ± 0.07 log10
Change in Plasma HIV-1 RNA (plasma HIV-1 RNA; 50t mg (tablet), 48 h): −0.46 ± 0.25 log10
average reduction of viral load (plasma HIV-1 RNA; 24 hour time point): 0.11±0.11
mean reduction of viral load after a single oral dose (plasma HIV-1 RNA; all dose levels, up to 48 hours): 0.4±0.2 log10 and 0.42±0.2 log10
mean reduction of viral load after a single oral dose (plasma HIV-1 RNA; various dosage levels, 24 and 48 hours): approximately 40%
IC90 (wild type HIV-1): 0.855 ± 0.4 µM
Viral Load Decline (log) (HIV viral load): −1.67 log
AUC at 12 m (in vivo [6]; female): 431 µM·h
Cmax at 12 m (in vivo [6]; female): 69 µM
AUC at 12 m (in vivo [6]; male): 401 µM·h
Cmax at 12 m (in vivo [6]; male): 74 µM
plasma half-life ([7]; compared with AZT and 3TC): longer than either AZT or 3TC
clearance of parent ([7]; rhesus monkey, in vivo): low clearance
CC50 at 96 h ([8]; African green monkey, Vero cells): > 100 µM
CC50 at 144 h ([8]; PBMCs): > 100 µM
CC50 at 30 h ([8]; hamster, BHK-21 cells): > 30 µM
CC50 at 24 h ([8]; human, 293 cells): > 30 µM
CC50 at 48 h ([8]; human, Huh7 cells): > 30 µM
CC50 at 72 h ([8]; human, MT-2 cells): > 220 µM
Intracellular [Nuc-PPP] in patients (target) [9]: 0.5 µM
